Reference: paper PMC11110727, “Exploiting thiol-functionalized benzosiloxaboroles for achieving diverse substitution patterns – synthesis, characterization and biological evaluation of promising antibacterial agents” (RSC Medicinal Chemistry, 2024)
In brackets after ≈: the same amount, converted by molar mass. Read-outs that look alike come from different tables or passages of the source.

How the values were obtained:
S. aureus ATCC 6538P = experiment: Antibacterial activity: MIC/MBC determination and disc-diffusion; assay type: cell-based, Staphylococcus aureus; conditions: for diameter of inhibition zone: disc-diffusion, — = zone not observed; for MBC / MIC: Staphylococcus aureus, ATCC6538P
Protocol: (§1) Direct antimicrobial activity was determined against the following standard strains: (1) Gram-positive cocci: methicillin-sensitive Staphylococcus aureus ATCC 6538P (MSSA), methicillin-resistant S. aureus subsp. aureus ATCC 43300 (MRSA), S. epidermidis ATCC 12228, Enterococcus faecium ATCC 6057, E. faecalis ATCC 29212, Bacillus subtilis ATCC 6633; (2) Gram-negative bacteria from Enterobacteriales order: Klebsiella pneumoniae ATCC 13883, Escherichia coli ATCC 25922, Enterobacter cloacae DSM 6234, Proteus mirabilis ATCC 12453, Serratia marcescens ATCC 13880; (3) Gram-negative non-fermentative rods: Acinetobacter baumannii ATCC 19606, Pseudomonas aeruginosa ATCC 27853, Stenotrophomonas maltophilia ATCC 12714, S. maltophilia ATCC 13637, Burkholderia cepacia ATCC 25416, Bordetella bronchiseptica ATCC 4617; (4) yeasts: Candida albicans ATCC 90028, C. krusei ATCC 6258, C. parapsilosis ATCC 22019, C. tropicalis (Castellani) Berkhout ATCC 750, C. tropicalis IBA 171, C. guilliermondii IBA 155, and Saccharomyces cerevisiae ATCC 9763. Moreover, 5 clinical strains of methicillin-resistant S. aureus were also included: NMI 664 K, NMI 1576 K, NMI 1712 K, NMI 1991 K, and NMI 2541 K. All strains were stored at −80 °C. Prior to testing, each bacterial strain was subcultured twice on tryptic soy agar TSA (bioMerieux) medium and yeast strains on Sabouraud dextrose agar (bioMerieux) for 24–48 h at 30 °C to ensure viability. The antimicrobial activity was evaluated as previously described[26] by the disc-diffusion method and the MIC determination assays according to the EUCAST (ref. [71] and [72]) and CLSI (ref. [53] and [73]) recommendations. Assessment of bactericidal (MBC) and fungicidal (MFC) activities was performed according to the CLSI recommendations.[54,74] The following reference agents were used: fluconazole (in the case of fungi), linezolid (for Gram-positive bacteria), and nitrofurantoin (for Gram-negative rods). The new benzosiloxaboroles were dissolved in DMSO (Sigma).

C. krusei ATCC 6258 = experiment: Antifungal activity: MIC/MFC, disc-diffusion; assay type: cell-based; conditions: for MIC: Pichia kudriavzevii, ATCC6258
Protocol: as §1, with “The following reference agents were used: fluconazole (in the case of fungi), linezolid (for Gram-positive bacteria), and nitrofurantoin (for Gram-negative rods).” left out

[1] = system: S. maltophilia ATCC 12714; experiment: Antibacterial activity: MIC/MBC, MIC with PAβN, disc-diffusion; assay type: cell-based, Stenotrophomonas maltophilia; conditions: Stenotrophomonas maltophilia, ATCC12714
Protocol: as §1, with “The following reference agents were used: fluconazole (in the case of fungi), linezolid (for Gram-positive bacteria), and nitrofurantoin (for Gram-negative rods).” left out
(§2) Considering that the MDR efflux pumps often contribute to Gram-negative rod resistance, the MIC values of studied agents, with or without the pump inhibitor, PAβN (20 μg mL^−1) (Sigma), were determined.[75] The MIC was determined using Mueller–Hinton II broth medium (MHB) (Becton Dickinson) by the broth microdilution method, according to the CLSI guideliness.[53] To minimize the influence of PAβN on the destabilization of bacterial cell covers, the tests were conducted in the presence of 1 mM MgSO4 (Sigma).[76] At least a 4-fold reduction in the MIC value after the addition of PAβN was considered significant.[56,77]

E. faecalis ATCC 29212 = experiment: Antibacterial activity: MIC/MBC determination and disc-diffusion; assay type: cell-based; conditions: Enterococcus faecalis, ATCC29212
Protocol: as §1

[2] = system: S. aureus ATCC 43300 MRSA; experiment: as above; assay type: cell-based; conditions: Staphylococcus aureus; for MBC: read-out: MBC (first MBC where Eagle effect)
Protocol: as §1

[3] = system: S. epidermidis ATCC 12228; experiment: as above; assay type: cell-based; conditions: Staphylococcus epidermidis, ATCC12228
Protocol: as §1

E. faecium ATCC 6057 = experiment: as above; assay type: cell-based; conditions: Enterococcus faecium, ATCC6057
Protocol: as §1

A. baumannii ATCC 19606 = experiment: Antibacterial activity: MIC/MBC, MIC with PAβN, disc-diffusion; assay type: cell-based, Acinetobacter baumannii; conditions: Acinetobacter baumannii, ATCC19606
Protocol: as §1, with “The following reference agents were used: fluconazole (in the case of fungi), linezolid (for Gram-positive bacteria), and nitrofurantoin (for Gram-negative rods).” left out
as §2

P. aeruginosa ATCC 27853 = experiment: as above; assay type: cell-based; conditions: Pseudomonas aeruginosa, ATCC27853
Protocol: as §1, with “The following reference agents were used: fluconazole (in the case of fungi), linezolid (for Gram-positive bacteria), and nitrofurantoin (for Gram-negative rods).” left out
as §2

E. cloacae DSM 6234 = experiment: as above; assay type: cell-based, Enterobacter cloacae; conditions: Enterobacter cloacae, DSM6234
Protocol: as §1, with “The following reference agents were used: fluconazole (in the case of fungi), linezolid (for Gram-positive bacteria), and nitrofurantoin (for Gram-negative rods).” left out
as §2

[4] = S. aureus ATCC 6538P, read-out: MBC (first MBC where Eagle effect)
[5] = S. aureus ATCC 6538P, read-out: MIC
[6] = S. maltophilia ATCC 12714, read-out: MIC
[7] = E. faecalis ATCC 29212, read-out: MIC
[8] = S. aureus ATCC 43300 MRSA, read-out: MIC
[9] = S. epidermidis ATCC 12228, read-out: MIC
[10] = E. faecium ATCC 6057, read-out: MIC
[11] = A. baumannii ATCC 19606, read-out: MIC
[12] = P. aeruginosa ATCC 27853, read-out: MIC
[13] = E. cloacae DSM 6234, read-out: MIC

Row | SMILES | diameter of inhibition zone (S. aureus ATCC 6538P; S. aureus ATCC 6538P) [mm] | MBC (S. aureus ATCC 6538P; [4]) [µg/mL] | MIC (S. aureus ATCC 6538P; [5]) [µg/mL] | MIC (C. krusei ATCC 6258; read-out: MIC) [µg/mL] | MIC [1, 6] [µg/mL] | MIC (E. faecalis ATCC 29212; [7]) [µg/mL] | MBC ([2]; S. aureus ATCC 43300 MRSA) [µg/mL] | MIC [2, 8] [µg/mL] | MBC ([3]; S. epidermidis ATCC 12228) [µg/mL] | MIC [3, 9] [µg/mL] | MIC (E. faecium ATCC 6057; [10]) [µg/mL] | MIC (A. baumannii ATCC 19606; [11]) [µg/mL] | MIC (P. aeruginosa ATCC 27853; [12]) [µg/mL] | MIC (E. cloacae DSM 6234; [13]) [µg/mL] | also measured
1 | C[Si]1(C)OB(O)c2ccc(SC(=O)c3ccc(C(F)(F)F)cc3)c(F)c21 [Compound 25, S-(7-Fluoro-3-hydroxy-1,1-dimethyl-1,3-dihydrobenzo[c][1,2,5]oxasilaborol-6-yl) 4-(trifluoromethyl)benzothioate] | 11 | 25 (≈ 62.5 µM) | 12.5 (≈ 31.2 µM) | > 50 | > 50 | 12.5 (≈ 31.2 µM) | 25 (≈ 62.5 µM) | 12.5 (≈ 31.2 µM) | 25 (≈ 62.5 µM) | 3.12 (≈ 7.8 µM) | 12.5 (≈ 31.2 µM) | > 50 | > 50 | > 50 | MBC (E. faecalis ATCC 29212; E. faecalis ATCC 29212): 25 µg/mL (≈ 62.5 µM); MBC (E. faecium ATCC 6057; E. faecium ATCC 6057): > 50 µg/mL
2 | C[Si]1(C)OB(O)c2cc(F)c(SC3CC(=O)N(c4ccc(Br)c(C(F)(F)F)c4)C3=O)c(F)c21 (centres unmarked) [Compound 16, 1-(4-Bromo-3-(trifluoromethyl)phenyl)-3-((5,7-difluoro-3-hydroxy-1,1-dimethyl-1,3-dihydrobenzo[c][1,2,5]oxasilaborol-6-yl)thio)pyrrolidine-2,5-dione] | 20 | 100 (≈ 177 µM) | 50 (≈ 88.3 µM) | 25 (≈ 44.2 µM) | > 200 | 25 (≈ 44.2 µM) | 100 (≈ 177 µM) | 50 (≈ 88.3 µM) | 100 (≈ 177 µM) | 50 (≈ 88.3 µM) | 50 (≈ 88.3 µM) | > 200 | > 200 | > 200 | diameter of inhibition zone (C. krusei ATCC 6258; C. krusei ATCC 6258, (-) = zone not observed, paper discs 9 mm): 21 mm; MBC (E. faecalis ATCC 29212; E. faecalis ATCC 29212): 200 µg/mL (≈ 353 µM)
3 | CCOP(=O)(OCC)Sc1c(F)cc2c(c1F)[Si](C)(C)OB2O [Compound 24, S-(5,7-Difluoro-3-hydroxy-1,1-dimethyl-1,3-dihydrobenzo[c][1,2,5]oxasilaborol-6-yl) O,O-diethyl phosphorothioate] | 32 | – | – | – | – | – | – | – | – | – | – | – | – | – | MIC (S. aureus ATCC 6538P): 6.25 µg/mL (≈ 16.4 µM); MBC (S. aureus ATCC 6538P; read-out: MBC (first MBC where Eagle effect)): 12.5 µg/mL (≈ 32.7 µM); MBC (S. aureus ATCC 6538P; read-out: second MBC (Eagle effect)): > 400 µg/mL; MIC (C. krusei ATCC 6258): > 400 µg/mL; MIC [1]: > 400 µg/mL; MIC (E. faecalis ATCC 29212): > 400 µg/mL; MIC [2]: 12.5 µg/mL (≈ 32.7 µM); MBC [2]: > 400 µg/mL; MIC [3]: 100 µg/mL (≈ 262 µM); MIC (E. faecium ATCC 6057): 400 µg/mL (≈ 1050 µM); MIC (A. baumannii ATCC 19606): > 400 µg/mL; MIC (P. aeruginosa ATCC 27853): > 400 µg/mL; MIC (E. cloacae DSM 6234): > 400 µg/mL
4 | C[Si]1(C)OB(O)c2ccc(S)c(F)c21 [Compound 2e, 7-Fluoro-6-mercapto-1,1-dimethylbenzo[c][1,2,5]oxasilaborol-3(1H)-ol] | 20 | 25 (≈ 110 µM) | 12.5 (≈ 54.8 µM) | > 100 | > 100 | 12.5 (≈ 54.8 µM) | 25 (≈ 110 µM) | 12.5 (≈ 54.8 µM) | 25 (≈ 110 µM) | 6.25 (≈ 27.4 µM) | 12.5 (≈ 54.8 µM) | > 100 | > 100 | > 100 | –
5 | C[Si]1(C)OB(O)c2cc(F)c(SCCC#N)c(F)c21 [Compound 6, 3-((5,7-Difluoro-3-hydroxy-1,1-dimethyl-1,3-dihydrobenzo[c][1,2,5]oxasilaborol-6-yl)thio)propanenitrile] | 30 | 12.5 (≈ 41.8 µM) | 6.25 (≈ 20.9 µM) | > 400 | > 400 | 400 (≈ 1340 µM) | > 400 | 12.5 (≈ 41.8 µM) | – | 50 (≈ 167 µM) | 400 (≈ 1340 µM) | > 400 | > 400 | > 400 | MBC (S. aureus ATCC 6538P; S. aureus ATCC 6538P, value after the slash, read-out: second MBC (Eagle effect)): > 400 µg/mL
6 | C[Si]1(C)OB(O)c2cc(F)c(S(=O)(=O)Cl)c(F)c21 [Compound 26, 5,7-Difluoro-3-hydroxy-1,1-dimethyl-1,3-dihydrobenzo[c][1,2,5]oxasilaborole-6-sulfonyl chloride] | 14 | 400 | 200 | > 400 | > 400 | 200 | – | 200 | – | 200 | 100 | > 400 | > 400 | > 400 | –
7 | C[Si]1(C)OB(O)c2ccc(SCCS(=O)(=O)c3ccccc3)c(F)c21 [Compound 21, 7-Fluoro-1,1-dimethyl-6-((2-(phenylsulfonyl)ethyl)thio)benzo[c][1,2,5]oxasilaborol-3(1H)-ol] | 26 | 200 (≈ 505 µM) | 12.5 (≈ 31.5 µM) | > 400 | > 400 | 200 (≈ 505 µM) | 400 (≈ 1010 µM) | 12.5 (≈ 31.5 µM) | – | 25 (≈ 63.1 µM) | 200 (≈ 505 µM) | > 400 | > 400 | > 400 | –
8 | C[Si]1(C)OB(O)c2cc(F)c(SCCC(=O)N3CCOCC3)c(F)c21 [Compound 8, 3-((5,7-Difluoro-3-hydroxy-1,1-dimethyl-1,3-dihydrobenzo[c][1,2,5]oxasilaborol-6-yl)thio)-1-morpholinopropan-1-one] | 25 | – | 50 (≈ 129 µM) | > 400 | > 400 | 400 (≈ 1030 µM) | – | 50 (≈ 129 µM) | – | 100 (≈ 258 µM) | 200 (≈ 516 µM) | > 400 | > 400 | > 400 | –
